This passage reports DC50 and Dmax results from patent US12570662B2, “Substituted pyrrolo[1,2-b]pyridazines as bifunctional degraders of interleukin-1 receptor-associated kinases” (Nurix Therapeutics, Inc., priority 2021, dated 2026).

For this experiment, the target named is T1, IRAK4 (Homo sapiens, UniProt Q9NWZ3).
T1 construct: C-terminal HiBiT-tagged Jurkat cells (polyclonal cell line or clone 8D5); endogenous in cells; host or cells: Jurkat cells (polyclonal cell line or clone 8D5), HiBiT-tagged
T1 sequence (Q9NWZ3 1-460): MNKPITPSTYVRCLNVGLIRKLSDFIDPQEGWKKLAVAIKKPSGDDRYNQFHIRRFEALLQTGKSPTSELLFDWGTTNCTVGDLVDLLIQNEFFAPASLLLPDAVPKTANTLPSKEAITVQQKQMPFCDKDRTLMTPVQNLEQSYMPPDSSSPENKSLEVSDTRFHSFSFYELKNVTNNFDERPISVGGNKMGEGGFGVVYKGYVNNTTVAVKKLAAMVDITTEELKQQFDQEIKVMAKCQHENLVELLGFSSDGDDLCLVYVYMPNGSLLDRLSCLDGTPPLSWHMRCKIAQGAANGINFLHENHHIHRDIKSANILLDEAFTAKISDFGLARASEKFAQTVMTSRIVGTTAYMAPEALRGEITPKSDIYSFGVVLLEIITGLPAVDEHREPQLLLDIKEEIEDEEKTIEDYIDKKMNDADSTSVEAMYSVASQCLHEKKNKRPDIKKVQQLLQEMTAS
Kind of experiment: IRAK4 Degradation HiBit Assay. In kind it is cell-based. The conditions noted are these: C-terminal HiBiT-tagged Jurkat cells, 4 hrs incubation; for DC50: % IRAK4 remaining, four-parameter fit (IC50 used as DC50); for Dmax: from fit of % IRAK4 remaining, read-out: Dmax. Put shortly:
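Degradation was quantified by luminescence after adding lytic detection reagent containing LgBiT to HiBiT-tagged Jurkat cells (polyclonal or clone 8D5). Cells were treated 4 h at 32 °C across 11 concentrations from 10 μM to 0.1 nM final. Four-parameter curve fitting of % IRAK4 remaining versus DMSO gave DC50 and Dmax.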
(With HiBiT, luminescence reflects the tagged protein that the partner subunit can reach.)

The DC50 is the concentration at which degradation of the target reaches its halfway point. Broadly, the Dmax is the greatest extent of degradation seen. For the compound `N#Cc1cnn2c(-c3cc(NC4CCOCC4)c(-c4nnc(N5CCN(C(=O)CC6CCN(c7ccc(C8CCC(=O)NC8=O)cn7)CC6)CC5)s4)cn3)ccc2c1` (racemic) [Example 18, rac-7-[5-(5-{4-[2-(1-{5-[(3R)-2,6-dioxopiperidin-3-yl]pyridin-2-yl}piperidin-4-yl)acetyl]piperazin-1-yl}-1,3,4-thiadiazol-2-yl)-4-[(oxan-4-yl)amino]pyridin-2-yl]pyrrolo[1,2-b]pyridazine-3-carbonitrile], the DC50 is 12 nM and the Dmax came out at 103%.

For the compound `N#Cc1cnn2c(-c3cc(NC4CC4)c(-c4nnc(N5CC6CCC(C5)N6CC5CCN(c6ccc([C@@H]7CCC(=O)NC7=O)cn6)CC5)s4)cn3)ccc2c1` (single isomer, unassigned) [Example 125], half-maximal degradation (DC50) was put at 30 nM and the Dmax is 106%.

Regarding `CNc1cc(-c2ccc3cc(C#N)cnn23)ncc1-c1nnc([C@H]2CC[C@H](CN3CCN(c4ccc([C@@H]5CCC(=O)NC5=O)cn4)CC3)CC2)s1` (racemic) [Example 44, 7-[4-(methylamino)-5-{5-[(1r,4r)-4-[(4-{5-[(3RS)-2,6-dioxopiperidin-3-yl]pyridin-2-yl}piperazin-1-yl)methyl]cyclohexyl]-1,3,4-thiadiazol-2-yl}pyridin-2-yl]pyrrolo[1,2-b]pyridazine-3-carbonitrile], the DC50 is 12 nM and the Dmax is 114%.

In the case of `N#Cc1cnn2c(-c3cc(NC4CCOCC4)c(-c4nnc(N5CC6(CCN(CC7CCN(c8ccc(C9CCC(=O)NC9=O)cn8)CC7)CC6)C5)s4)cn3)ccc2c1` (racemic) [Example 88, rac-7-[5-(5-{7-[(1-{5-[(3R)-2,6-dioxopiperidin-3-yl]pyridin-2-yl}piperidin-4-yl)methyl]-2,7-diazaspiro[3.5]nonan-2-yl}-1,3,4-thiadiazol-2-yl)-4-[(oxan-4-yl)amino]pyridin-2-yl]pyrrolo[1,2-b]pyridazine-3-carbonitrile], the DC50 was found to be 11 nM and the Dmax stood at 115%.

In the case of `CC(C)Nc1cc(-c2ccc3cc(C#N)cnn23)ncc1-c1nnc(N2CCN(C(=O)C3CCN(c4ccc(C5CCC(=O)NC5=O)cn4)CC3)CC2)s1` (racemic) [Example 48, rac-7-(5-{5-[4-(1-{5-[(3R)-2,6-dioxopiperidin-3-yl]pyridin-2-yl}piperidine-4-carbonyl)piperazin-1-yl]-1,3,4-thiadiazol-2-yl}-4-[(propan-2-yl)amino]pyridin-2-yl)pyrrolo[1,2-b]pyridazine-3-carbonitrile], the DC50 was 23 nM and the Dmax is 109%.

Consider `CCNc1cc(-c2ccc3cc(C#N)cnn23)ncc1-c1nnc(N2CCN(CC3CCN(c4ccc(C5CCC(=O)NC5=O)cc4)CC3)CC2)s1` (racemic) [Example 70, rac-7-[5-(5-{4-[(1-{4-[(3R)-2,6-dioxopiperidin-3-yl]phenyl}piperidin-4-yl)methyl]piperazin-1-yl}-1,3,4-thiadiazol-2-yl)-4-(ethylamino)pyridin-2-yl]pyrrolo[1,2-b]pyridazine-3-carbonitrile], for which the DC50 turned out to be 42 nM and the Dmax stood at 112%.

In the case of `CNc1cc(-c2ccc3cc(C#N)cnn23)ncc1-c1nnc(N2CCN(C(=O)C3CCN(c4ccc(C5CCC(=O)NC5=O)cn4)CC3)CC2)s1` (racemic) [Example 51, 7-{5-[5-(4-{1-[5-(2,6-dioxopiperidin-3-yl)pyridin-2-yl]piperidine-4-carbonyl}piperazin-1-yl)-1,3,4-thiadiazol-2-yl]-4-(methylamino)pyridin-2-yl}pyrrolo[1,2-b]pyridazine-3-carbonitrile], the DC50 is 10 nM and the Dmax was found to be 112%.

Regarding `N#Cc1cnn2c(-c3cc(NC4CCOCC4)c(-c4nnc(N5CC6CCC(C5)N6CC5CCN(c6ccc([C@H]7CCC(=O)NC7=O)cn6)CC5)s4)cn3)ccc2c1` (single isomer, unassigned) [Example 112], the DC50 worked out at 33 nM and the Dmax came to 92%.

For `N#Cc1cnn2c(-c3cc(NC4CCOCC4)c(-c4nnc(N5CC6CCC(C5)N6CC5CCN(c6ccc([C@@H]7CCC(=O)NC7=O)cn6)CC5)s4)cn3)ccc2c1` (racemic) [Example 34, rac-7-[5-(5-{8-[(1-{5-[(3R)-2,6-dioxopiperidin-3-yl]pyridin-2-yl}piperidin-4-yl)methyl]-3,8-diazabicyclo[3.2.1]octan-3-yl}-1,3,4-thiadiazol-2-yl)-4-[(oxan-4-yl)amino]pyridin-2-yl]pyrrolo[1,2-b]pyridazine-3-carbonitrile], the half-maximal degradation concentration (DC50) stood at 24 nM and the Dmax stood at 97%.

As to `N#Cc1cnn2c(-c3cc(NC4CCOCC4)c(-c4nnc(N5CC6CCC(C5)N6CC5CCN(c6ccc([C@H]7CCC(=O)NC7=O)cc6)CC5)s4)cn3)ccc2c1` (racemic) [Example 85, rac-7-[5-(5-{8-[(1-{4-[(3R)-2,6-dioxopiperidin-3-yl]phenyl}piperidin-4-yl)methyl]-3,8-diazabicyclo[3.2.1]octan-3-yl}-1,3,4-thiadiazol-2-yl)-4-[(oxan-4-yl)amino]pyridin-2-yl]pyrrolo[1,2-b]pyridazine-3-carbonitrile], the DC50 stood at 25 nM and the Dmax was determined as 73%.

With `C[C@@H](C#N)Nc1cc(-c2ccc3cc(C#N)cnn23)ncc1-c1nnc(N2CC3CCC(C2)N3CC2CCN(c3ccc([C@@H]4CCC(=O)NC4=O)cn3)CC2)s1` (single isomer, unassigned) [Example 145], the DC50 stood at 22 nM and the Dmax worked out at 113%.

As to `C[C@@H](C#N)Nc1cc(-c2ccc3cc(C#N)cnn23)ncc1-c1nnc(N2CC3CCC(C2)N3CC2CCN(c3ccc([C@H]4CCC(=O)NC4=O)cn3)CC2)s1` (single isomer, unassigned) [Example 143], the DC50 is 72 nM and the Dmax turned out to be 99%.

For the compound `N#Cc1cnn2c(-c3cc(NC4CCOCC4)c(-c4nnc(N5CCN(C(=O)[C@H]6CCN(c7ccc([C@@H]8CCC(=O)NC8=O)cn7)C6)CC5)s4)cn3)ccc2c1` (racemic) [Example 17, 7-[5-(5-{4-[(3RS)-1-{5-[(3RS&)-2,6-dioxopiperidin-3-yl]pyridin-2-yl}pyrrolidine-3-carbonyl]piperazin-1-yl}-1,3,4-thiadiazol-2-yl)-4-[(oxan-4-yl)amino]pyridin-2-yl]pyrrolo[1,2-b]pyridazine-3-carbonitrile], half-maximal degradation (DC50) was put at 12 nM and the Dmax is 100%.

Consider `CNc1cc(-c2ccc3cc(C#N)cnn23)ncc1-c1nnc([C@H]2CC[C@H](CN3CCc4cc([C@H]5CCC(=O)NC5=O)ccc4C3)CC2)s1` (racemic) [Example 6, 7-[4-(methylamino)-5-{5-[(1r,4r)-4-({6-[(3RS)-2,6-dioxopiperidin-3-yl]-1,2,3,4-tetrahydroisoquinolin-2-yl}methyl)cyclohexyl]-1,3,4-thiadiazol-2-yl}pyridin-2-yl]pyrrolo[1,2-b]pyridazine-3-carbonitrile], for which the DC50 amounted to 70 nM and the Dmax stood at 36%.

Consider `CCNc1cc(-c2ccc3cc(C#N)cnn23)ncc1-c1nnc(N2CC3CCC(C2)N3CC2CCN(c3ccc([C@H]4CCC(=O)NC4=O)cn3)CC2)s1` (racemic) [Example 89, rac-7-[5-(5-{8-[(1-{5-[(3R)-2,6-dioxopiperidin-3-yl]pyridin-2-yl}piperidin-4-yl)methyl]-3,8-diazabicyclo[3.2.1]octan-3-yl}-1,3,4-thiadiazol-2-yl)-4-(ethylamino)pyridin-2-yl]pyrrolo[1,2-b]pyridazine-3-carbonitrile], for which the DC50 is 24 nM and the Dmax is 112%.

Take `N#Cc1cnn2c(-c3cc(N[C@H]4CCOC4)c(-c4nnc(N5CC6CCC(C5)N6CC5CCN(c6ccc(C7CCC(=O)NC7=O)cn6)CC5)s4)cn3)ccc2c1` (mixture of isomers) [Example 87, 7-[5-(5-{8-[(1-{5-[(3RS)-2,6-dioxopiperidin-3-yl]pyridin-2-yl}piperidin-4-yl)methyl]-3,8-diazabicyclo[3.2.1]octan-3-yl}-1,3,4-thiadiazol-2-yl)-4-{[(3S)-oxolan-3-yl]amino}pyridin-2-yl]pyrrolo[1,2-b]pyridazine-3-carbonitrile]: the DC50 was 47 nM and the Dmax was determined as 61%.

Regarding `N#Cc1cnn2c(-c3cc(N[C@@H]4CCOC4)c(-c4nnc(N5CCN(CC6CCN(c7ccc([C@@H]8CCC(=O)NC8=O)cn7)CC6)CC5)s4)cn3)ccc2c1` (single isomer, unassigned) [Example 127], the DC50 stood at 9 nM and the Dmax was 113%.

`N#Cc1cnn2c(-c3cc(NC4(C#N)CC4)c(-c4nnc(N5CC6CCC(C5)N6CC5CCN(c6ccc([C@@H]7CCC(=O)NC7=O)cn6)CC5)s4)cn3)ccc2c1` (single isomer, unassigned) [Example 134]: the DC50 worked out at 20 nM and the Dmax was found to be 111%.
